Reference: patent US10413612B2, “Method of treating cancer with a biomaterial and a toll-like receptor agonist” (Dana-Farber Cancer Institute, Inc., priority 2016, dated 2019)
Several values for one entry are separate records, joined by “and”; a condition that tells them apart may be missing. Equal entries are not always repeated.

How the values were obtained:
TLR7 [1] = molecular target: T1, TLR7 (Homo sapiens, UniProt Q9NYK1); settings: TLR7-transfected HEK293 cells; cited from earlier work
T1 construct: expressed in transfected cells; host or cells: HEK293
T1 sequence (Q9NYK1 27-1049): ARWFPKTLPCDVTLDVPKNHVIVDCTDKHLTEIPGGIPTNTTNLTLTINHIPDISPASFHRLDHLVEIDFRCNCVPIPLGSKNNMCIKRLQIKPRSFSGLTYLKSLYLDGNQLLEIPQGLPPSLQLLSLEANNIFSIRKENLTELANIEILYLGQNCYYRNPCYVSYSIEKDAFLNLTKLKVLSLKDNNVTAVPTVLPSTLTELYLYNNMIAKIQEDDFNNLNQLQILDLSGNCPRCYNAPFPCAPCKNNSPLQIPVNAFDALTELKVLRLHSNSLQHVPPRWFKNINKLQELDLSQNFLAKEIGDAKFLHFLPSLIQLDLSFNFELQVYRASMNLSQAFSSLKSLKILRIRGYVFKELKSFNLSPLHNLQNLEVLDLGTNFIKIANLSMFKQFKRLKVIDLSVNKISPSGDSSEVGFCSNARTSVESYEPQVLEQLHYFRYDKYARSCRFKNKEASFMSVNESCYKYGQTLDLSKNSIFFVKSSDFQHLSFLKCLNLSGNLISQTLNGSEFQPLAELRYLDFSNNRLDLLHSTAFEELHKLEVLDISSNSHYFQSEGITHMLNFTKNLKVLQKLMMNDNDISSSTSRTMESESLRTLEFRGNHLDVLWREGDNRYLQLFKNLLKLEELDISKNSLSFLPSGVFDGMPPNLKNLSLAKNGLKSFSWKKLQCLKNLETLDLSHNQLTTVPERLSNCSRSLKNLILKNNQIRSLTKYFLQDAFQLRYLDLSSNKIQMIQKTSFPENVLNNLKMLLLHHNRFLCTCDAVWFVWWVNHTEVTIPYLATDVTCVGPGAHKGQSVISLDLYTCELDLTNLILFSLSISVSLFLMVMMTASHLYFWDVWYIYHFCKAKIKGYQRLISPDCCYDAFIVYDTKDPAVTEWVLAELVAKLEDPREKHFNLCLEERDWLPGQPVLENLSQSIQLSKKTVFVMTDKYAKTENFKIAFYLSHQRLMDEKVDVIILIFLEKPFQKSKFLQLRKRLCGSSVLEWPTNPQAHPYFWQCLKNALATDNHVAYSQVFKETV

TLR8 = molecular target: T2, TLR8 (Homo sapiens, UniProt Q9NR97); settings: cited from earlier work
T2 construct: expressed in transfected cells; host or cells: HEK293
T2 sequence (Q9NR97 27-1041): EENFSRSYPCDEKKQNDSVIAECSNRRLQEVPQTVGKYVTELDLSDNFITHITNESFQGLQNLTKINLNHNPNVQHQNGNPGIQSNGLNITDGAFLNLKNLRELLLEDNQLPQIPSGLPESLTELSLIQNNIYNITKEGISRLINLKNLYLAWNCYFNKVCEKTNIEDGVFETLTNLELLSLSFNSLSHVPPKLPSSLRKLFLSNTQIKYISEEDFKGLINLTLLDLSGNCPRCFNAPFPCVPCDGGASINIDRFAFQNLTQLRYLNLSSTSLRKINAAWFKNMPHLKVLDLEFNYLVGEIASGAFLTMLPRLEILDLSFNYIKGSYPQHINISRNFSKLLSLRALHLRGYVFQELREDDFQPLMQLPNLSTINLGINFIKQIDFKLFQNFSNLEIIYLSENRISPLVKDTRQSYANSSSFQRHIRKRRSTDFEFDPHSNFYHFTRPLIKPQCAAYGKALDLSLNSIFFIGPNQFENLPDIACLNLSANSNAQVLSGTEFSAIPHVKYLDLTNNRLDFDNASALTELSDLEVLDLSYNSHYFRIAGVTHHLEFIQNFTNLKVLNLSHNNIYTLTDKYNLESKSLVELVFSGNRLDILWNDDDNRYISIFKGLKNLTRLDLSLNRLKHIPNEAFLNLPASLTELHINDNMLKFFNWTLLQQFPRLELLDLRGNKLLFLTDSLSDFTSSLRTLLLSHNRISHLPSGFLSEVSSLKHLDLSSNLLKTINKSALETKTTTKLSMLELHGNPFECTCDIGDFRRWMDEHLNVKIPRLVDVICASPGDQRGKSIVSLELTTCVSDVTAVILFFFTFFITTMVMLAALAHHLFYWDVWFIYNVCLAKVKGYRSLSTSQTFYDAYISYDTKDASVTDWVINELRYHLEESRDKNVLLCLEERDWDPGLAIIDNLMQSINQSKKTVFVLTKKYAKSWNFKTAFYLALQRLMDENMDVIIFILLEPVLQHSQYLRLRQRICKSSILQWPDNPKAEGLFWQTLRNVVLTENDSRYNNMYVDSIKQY

TLR7 [2] = molecular target: T1, TLR7; settings: cited from earlier work
[3] = In vivo release study (fluorescence IVIS imaging); set-up: species or system non-tumor-bearing mice; settings: mouse, in vivo
Excerpt: To evaluate the in vivo release profiles of Cy7 carboxylic acid (a model compound for R848), anti-PD-1, IL-15sa, and 2′3′-cGAMP, hydrogels containing the fluorophore or one of the fluorescently labeled payloads were surgically implanted into non-tumor-bearing mice.
The loading and release properties of the hydrogel were examined in additional experiments. […] It was then confirmed that the hydrogel extends the release of the small molecules and biologics in vivo. Cy7 carboxylic acid (Cy7-CA) was used as a model small molecule payload, as its physical properties are very similar to those of resiquimod (R848). Cy7-CA was administered to non-tumor-bearing mice, either in solution or loaded in a scaffold placed by the fourth mammary fat pad. The mice were assessed by fluorescence IVIS imaging (FIG. 37B), and the data were quantified (FIG. 37C). Whereas a loss of ˜60% of the signal was detected within two hours of administration of the fluorophore in solution, this amount of signal decay required 24 hours for the fluorophore loaded in the hydrogel. Over this time course, there was a […] for the latter group, on average.
To confirm that the hydrogel sustains the release of the small molecule and biologics in vivo, fluorescently labeled versions of 2 ? […]

4T1-Luc2 cells [4] = assay: Non-resected orthotopic 4T1-Luc2 tumors: peritumoral hydrogel or intratumoral injection; format: in vivo, mice; settings: single intratumoral (IT) injection
Excerpt: In certain embodiments, intraoperative placement of the immunotherapy-loaded hydrogel is required for therapeutic benefit.

[5] = system: 4T1-Luc2 syngeneic breast cancer cells; settings: for survival with compromised immune system: NK, CD8+ T or CD4+ T cells depleted or IFNAR1 neutralized; for survival benefit as innate immune activator component: hydrogel with IL-15sa and anti-PD-1 (devices 1, 14-16); for efficacy (tumor recurrence, metastasis, survival), in words: scaffold placed in tumor resection site 10 days after inoculation
Description: Seven-week-old female Balb/c mice were inoculated orthotopically with 100,000 4T1-Luc2 syngeneic breast cancer cells (into the fourth mammary fat pad). After 10 days, the mice were anesthetized, tumors were surgically resected, and compositions were placed in the resection site. […] The order of surgeries avoided systematic error by dividing up the groups. Standard follow-up care (wound clips, analgesic) was provided.
For the metastatic breast cancer model, 10^5 4T1-Luc2 or 4T1 cells (in 30 μl DPBS) were inoculated orthotopically into the fourth mammary pad of mice to generate a local tumor mass. Cells were injected without any incision to expose the fat pad. Mice were randomly assigned to treatment groups, and surgery was performed 10 days after tumor inoculation. For the metastatic melanoma and lung cancer models, 10^6B16-BL6 or 5×10^5 LLC cells (in 100 μl DPBS) were inoculated subcutaneously in mice to generate a local tumor mass. Mice were randomly assigned to treatment groups, and surgery was performed when tumor volumes reached ˜600 mm^3. While mice were kept under anesthesia at 2% isoflurane, the tumor was resected, and the hydrogel was placed in the site of the resultant cavity at the time of surgery. The wound was closed with medical clips. Control experiments were performed in which therapy was administered in solution at the site of surgery, intraperitoneally, or intravenously. For tumor re-challenge experiments, 10^4 4T1-Luc2 cells were inoculated in the contralateral fourth mammary fat pad. The surgeries were performed independently at least three times, and the surgeon was often blinded.
After surgery, mice were inspected weekly for tumor recurrence and distal metastasis by bioluminescence imaging (BLI). To this end, 10 min after intraperitoneal injection of D-luciferin (150 mg/kg), a substrate of Luc2, the mice were anesthetized with 2% isoflurane and imaged using an IVIS Spectrum In Vivo Imaging System (Perkin Elmer).
A series of compositions described above in Table 2 were evaluated in viva. In each group of evaluations, seven-week-old female Balb/c mice were inoculated orthotopically with 100,000 4T1-Luc2 syngeneic breast cancer cells (into the fourth mammary fat pad). After 10 days, mice were anesthetized, tumors were surgically resected, and the composition was placed in the resection site. Tumor relapse and metastasis were monitored via imaging over the course of 6 weeks.
Female BALB/cJ mice were inoculated orthotopically with 4T1-Luc2 breast cancer cells in their fourth mammary fat pad. Nine days later, the mice were imaged by bioluminescent IVIS imaging to confirm that the size of the tumors was consistent across animals to enable randomization into groups. On day 10 post-tumor inoculation, tumors (˜100 mm^3) were resected, and device 1 was placed in the tumor resection site. Controls included no treatment (sham), empty hydrogel (device 8/hydrogel 4), or delivery of the triple combination in solution (S+I+P)—via intraperitoneal injection, intravenous injection, or local administration.

4T1-Luc2 cells [6] = assay: Tumor re-challenge of surviving mice; format: in vivo; settings: mice with durable survival after loaded hydrogel
Description: The wound was closed with medical clips.
To gain insights into the soluble factors that are associated with the activation of innate and adaptive immune cells, the levels of cytokines in peripheral blood were measured. At multiple time points post-surgery, plasma was collected and subsequently analyzed by multiplexing laser bead technology. […] Indeed, the induction of a memory response was confirmed by re-challenging the surviving mice, 100% of which rejected the freshly inoculated 4T1-Luc2 cells (FIG. 94A).

## CCCCNc1nc(N)c2nc(O)n(Cc3ccc(C(=O)NCC(=O)O)cc3)c2n1 [CL264]
TLR7 [1]
  activating concentration, times less than imiquimod: 5-10 times
  concentration inducing NF-κB activation: 0.1 µM
TLR8
  concentration without stimulation of TLR8: > 10 µg/mL

## CCCCNc1nc(N)c2nc(O)n(Cc3ccc(C(=O)NCC(=O)NCCCNCCCCNCCCN)cc3)c2n1 [CL307, N1-glycinyl[4-((6-amino-2-(butylamino)-8-hydroxy-9H-purin-9-yl)methyl)benzoyl]spermine]
TLR7 [2]
  concentration inducing robust NF-κB activation: ≤ 20 nM and ≤ 10 ng/ml

## C[N+]1=C(/C=C/C2=CC(=C/C=C3/N(CCCCCC(=O)O)c4ccccc4C3(C)C)CCC2)C(C)(C)c2ccccc21.[Cl-] [Cy7-CA, Cy7 carboxylic acid]
[3]
  increase in signal, hydrogel vs solution: roughly three

## CCOCc1nc2c(N)nc3ccccc3c2n1CC(C)(C)O [Device R848, resiquimod]
4T1-Luc2 cells [4]
  survival: did not prolong survival
[5]
  survival with compromised immune system: exhibited reduced survival
  survival benefit as innate immune activator component: conferred meaningful benefit
  efficacy (tumor recurrence, metastasis, survival), in words: prevented most effectively
[5]; hydrogel vs solution (weekly IV, weekly IP, local with empty hydrogel)
  survival benefit by mode of administration: survival benefit was observed only when R848 was loaded in the hydrogel
[5]; mouse, in vivo
  tolerability (body weight): well tolerated
[5]; three consecutive daily IP injections (200 μg)
  survival benefit: failed to confer robust survival benefit
4T1-Luc2 cells [6]
  surviving mice that rejected / survived re-challenge: 100%

## Cc1cccc(-c2[nH]c(CNc3ccccc3F)nc2-c2ccc3ncnn3c2)n1 [EW7197]
[5]; small molecule dissolved in DMSO
  efficacy of hydrogel with IL-15 superagonist, anti-PD-1 and the small molecule: provided less efficacious results

## Nc1ncnc2c1ncn2C1O[C@@H]2CO[P@@](=O)([S-])O[C@H]3[C@@H](O)[C@H](n4cnc5c(N)ncnc54)O[C@@H]3CO[P@@](=O)([S-])O[C@@H]1[C@@H]2O.[Na+].[Na+] (stereo partly shown) [STING-RR, 2′3′-c-di-AM(PS)2 (Rp,Rp)]
4T1-Luc2 cells [4]
  survival: did not prolong survival
[5]
  survival with compromised immune system: exhibited reduced survival
  efficacy (tumor recurrence, metastasis, survival), in words: prevented most effectively
4T1-Luc2 cells [6]
  surviving mice that rejected / survived re-challenge: 100%

## CCOC(=O)C1=Cc2ccc(-c3cccc(C#N)c3)cc2N=C(N)C1 [TL8-506]
TLR8; TLR8-transfected HEK293 cells
  potency in inducing NF-κB activation relative to CL075: ~25 ×
  potency in inducing NF-κB activation relative to R848: ~50 ×

## IL-21: pleiotropic cytokine
[5]; hydrogel with 2′3′-cGAMP and anti-PD-1 (devices 1, 13)
  survival benefit as cytokine component: had little impact

## polyinosinic:polycytidylic acid [poly(I:C)]
[5]
  survival benefit as innate immune activator component: had little impact
